The test system of one assay is Malassezia restricta. The assay can be described thus: Antifungal inhibition test on agar (Malassezia suspension, growth scored against control). It is filed as cell-based. On the set-up: key to inhibition score (density of the culture at the surface of the agar vs growth control): 3: No growth; 2: Growth < in the control dish; 1: Growth < in the control dish; 0: Growth comparable to the control dish. The conditions noted are these: positive reference 1% zinc pyrithione. Here is the method: (§1) The test product is brought into contact with the Malassezia suspension. The mixture is deposited at the surface of agar medium. It is spread and the excess is recovered before incubation. It is incubated for at least 5 days at 30° C.
(§2) The products are placed in solution in liquid modified Leeming and Notman medium (LNm) and the tests are carried out in duplicate. The complete culture is at 7.5 g/l or 150 g/l (concentrated version) on a dry matter basis.
(§3) The complete culture was tested at 10% (for the concentration at 7.5 g/l) and at 1% (for the concentration at 150 g/l).
(§4) The positive reference is 1% zinc pyrithione.
(§5) The solutions of the products are twice as concentrated in order to take into account the dilution to ½ during the bringing into contact with the Malassezia suspension.
(§6) The Malassezia globosa and restricta strains were received on agar slopes and were subcultured and incubated at 30° C. until the tests.
(§7) The suspensions are prepared in 15 ml of a buffered solution (ref AEB611294, AES).
(§8) The density of the suspensions is taken at 550 nm.
(§9) The antifungal effect of the reference product is evaluated via the absence of growth of the Malassezia strain tested. This inhibition is evaluated relative to the growth control.
(§10) The inhibitions are scored from 3 to 0 via assessment of the density of the culture at the surface of the agar, in comparison with the growth control for the strain.

A further assay concerns Malassezia globosa. The description is as above. It is filed as cell-based. On the set-up: key to inhibition score (density of the culture at the surface of the agar vs growth control): 3: No growth; 2: Growth < in the control dish; 1: Growth < in the control dish; 0: Growth comparable to the control dish. The following applies: positive reference 1% zinc pyrithione. As to the method: as §1, §2, §3, §4, §5, §6, §7, §8, §9, §10

Regarding Zinc pyrithione, the inhibition in words entry in the assay on Malassezia restricta and in the assay with Malassezia globosa was “Total inhibition” in each case. The “inhibition score (density of the culture at the surface of the agar vs growth control)” value with Malassezia restricta (at least 5 days at 30° C.) and with Malassezia globosa (at least 5 days at 30° C.) was 3 each time.

The values are drawn from patent US10046014B2, “Useful active agent for preventing and/or treating dandruff conditions of the scalp” (L'OREAL, priority 2011, dated 2018).
